Starred links: 1 amine or outer side, 2 acyl side, 3 side chain; linkers in the order of their positions; H or OH if unused. Non-standard residues stand in square brackets, D forms with d. Residues, ends and D or L forms follow the SMILES beside them. Nva(5-(4-Bn-piperidin-1-yl)) = N[C@@H](CCCN1CCC(Cc2ccccc2)CC1)C(=O)O; X5 = O=C1[C@@H](N[*:1])Cc2ccccc2CN1CCCC(=O)[*:2]; X1 = O=C1[C@@H](N[*:1])Cc2ccccc2CN1CCC(=O)[*:2]; Tic(7-OH) = O=C(O)[C@@H]1Cc2ccc(O)cc2CN1; Dmt = Cc1cc(O)cc(C)c1C[C@H](N)C(=O)O; dOrn = NCCC[C@@H](N)C(=O)O; dNMeA = CN[C@H](C)C(=O)O; Nlys = NCCCCNCC(=O)O; βAla = NCCC(=O)O
Tests used:
[1] = molecular target: T1, human MOPr (Homo sapiens, UniProt P35372); test: cell-based; type: cell-based; set-up: expressed in transfected cells; HEK293-Glo20F cells (cAMP); conditions: for Emax: read-out: MOPr (cAMP) Emax; for MOPr-induced G protein activation: in words
T1 sequence (P35372 whole entry): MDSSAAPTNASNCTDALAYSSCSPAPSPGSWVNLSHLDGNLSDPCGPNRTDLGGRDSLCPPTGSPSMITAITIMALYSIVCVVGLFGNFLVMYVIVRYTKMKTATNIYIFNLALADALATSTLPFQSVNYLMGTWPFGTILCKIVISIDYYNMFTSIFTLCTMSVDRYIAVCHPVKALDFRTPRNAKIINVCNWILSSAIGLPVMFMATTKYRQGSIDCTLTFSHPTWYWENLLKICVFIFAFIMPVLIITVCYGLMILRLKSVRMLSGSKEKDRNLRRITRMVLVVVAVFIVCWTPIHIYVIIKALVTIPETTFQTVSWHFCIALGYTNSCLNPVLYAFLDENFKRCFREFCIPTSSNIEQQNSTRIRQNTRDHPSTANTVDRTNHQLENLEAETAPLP
Procedure: Stimulation by endogenous RF-amide peptides or test compounds for [^35S]-GTPγS binding to membranes from CHO cells expressing human NPFF1R or NPFF2R, were examined as reported. 1.6. Glo-Sensor cAMP Assay cAMP accumulation assay was essentially done as described with the following modifications: HEK293 cells stably expressing cAMP Glosensor-20F were used, with or without additional stable expression of each individual opioid receptor or NPFF1R. The cAMP responses were measured in presence of D-luciferin (1 mM).

[2] = molecular target: T1, human MOPr; test: BRET1 β-arrestin-2 recruitment assay; type: cell-based; set-up: expressed in transfected cells; host or cells: HEK293 cells stably expressing eYFP-β-arrestin-2, transiently transfected with the Rluc8-MOP plasmid; conditions: for Emax: read-out: MOPr (β-arrestin-2) Emax; for β-arrestin-2 recruitment: in words;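 for Emax: Emax relative to maximal DAMGO-induced BRET as 100%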;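 for MOPr (β-arrestin-2) Emax: Emax relative to maximal DAMGO-induced BRET as 100%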
Procedure: Peak response amplitudes were normalized to basal and maximal (cells permeabilized with 20 μM digitonin) fluorescence levels. 1.8. β-Arrestin-2 recruitment assay The β-arrestin-2 recruitment assay was performed as described [34; 45] with minor modifications. Briefly, two days prior the experiment, HEK293 cells stably expressing eYFP-tagged β-arrestin-2 were transfected with the plasmid encoding Rluc8-MOP receptor. β-Arrestin-2 recruitment was measured at 37° C. in presence of 5 μM Coelenterazine H, 5 min after agonist addition.

[3] = Table 3B, read-out: MOPr (cAMP) EC50
[4] = Table 3B, — = non-detectable recruitment, read-out: MOPr (β-arrestin-2) EC50
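Throughout, for MOPr (cAMP) Emax: Emax relative to DAMGO as 100%.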

Row | Compound | EC50 [1, 3] [nM] | Emax [1] [%] | EC50 [2, 4] [nM] | Emax [2] [%] | MOPr-induced G protein activation [1] | β-arrestin-2 recruitment [2] | EC50 ([1]; MOPr (cAMP) EC50, Table 3B) [nM] | EC50 [2] [nM]
1 | Cc1cc(O)cc(C)c1C[C@H](N)C(=O)N(C)[C@H](C)C(=O)N[C@H]1Cc2ccccc2CN(CCC(=O)N[C@@H](CCCN2CCC(Cc3ccccc3)CC2)C(=O)N[C@@H](Cc2ccccc2)C(N)=O)C1=O [DP0007, H-Dmt-N(Me)-D-Ala-Aba-β-Ala-Bpa-Phe-NH2] (H-[Dmt][dNMeA][X1][Nva(5-(4-Bn-piperidin-1-yl))]F-NH2) | 40 ± 20 | 64 ± 6 | 214 | 12 |  |  |  | 
2 | Cc1cc(O)cc(C)c1C[C@H](N)C(=O)N1CCC[C@@H]1C(=O)N[C@H]1Cc2ccccc2CN(CCC(=O)N[C@@H](CCCN2CCC(Cc3ccccc3)CC2)C(=O)N[C@@H](Cc2ccccc2)C(N)=O)C1=O [DP0008, H-Dmt-D-Pro-Aba-β-Ala-Bpa-Phe-NH2] (H-[Dmt][dP][X1][Nva(5-(4-Bn-piperidin-1-yl))]F-NH2) | 10.6 ± 1.3 | 53 ± 0.7 |  |  | significant | non-detectable |  | 
3 | Cc1cc(O)cc(C)c1C[C@H](N)C(=O)N[C@H](CCCN1CCC(Cc2ccccc2)CC1)C(=O)N[C@H]1Cc2ccccc2CN(CCC(=O)N[C@@H](CCCN2CCC(Cc3ccccc3)CC2)C(=O)N[C@@H](Cc2ccccc2)C(N)=O)C1=O [DP0009, H-Dmt-D-Bpa-Aba-β-Ala-Bpa-Phe-NH2] | 800 | 35 |  |  |  |  |  | 
4 | Cc1cc(O)cc(C)c1C[C@H](N)C(=O)N[C@H](CCCNC(=N)N)C(=O)N[C@H]1Cc2ccccc2CN(CCC(=O)N[C@@H](CCCN2CCC(Cc3ccccc3)CC2)C(=O)N[C@H](Cc2ccccc2)C(N)=O)C1=O [DP0015, H-Dmt-D-Arg-Aba-β-Ala-Bpa-D-Phe-NH2] | 5.9 ± 0.3 | 109 ± 0.4 | 80 | 59 |  |  |  | 
5 | Cc1cc(O)cc(C)c1C[C@H](N)C(=O)N[C@H](CCCNC(=N)N)C(=O)N[C@H]1Cc2ccccc2CN(CCC(=O)N[C@@H](CCCN2CCC(Cc3ccccc3)CC2)C(=O)N[C@@H](Cc2ccccc2)C(=O)NCCC(N)=O)C1=O [DP0016, H-Dmt-D-Arg-Aba-β-Ala-Bpa-Phe-β-Ala-NH2] (H-[Dmt][dR][X1][Nva(5-(4-Bn-piperidin-1-yl))]F[βAla]-NH2) | 19 | 95 | 399 | 31 |  |  |  | 
6 | Cc1cc(O)cc(C)c1C[C@H](N)C(=O)N(C)[C@H](C)C(=O)N[C@H]1Cc2ccccc2CN(CCCC(=O)N[C@@H](CCCN2CCC(Cc3ccccc3)CC2)C(=O)N[C@@H](Cc2ccccc2)C(N)=O)C1=O [DP0017, H-Dmt-N(Me)-D-Ala-AbaGABA-Bpa-Phe-NH2] (H-[Dmt][dNMeA][X5][Nva(5-(4-Bn-piperidin-1-yl))]F-NH2) | 14.1 | 70 |  |  | significant | non-detectable |  | 
7 | Cc1cc(O)cc(C)c1C[C@H](N)C(=O)N[C@H](CCCNC(=N)N)C(=O)N[C@H]1Cc2c(ccc3ccccc23)CN(CC(=O)N[C@@H](CCCN2CCC(Cc3ccccc3)CC2)C(=O)N[C@@H](Cc2c[nH]c3ccccc23)C(N)=O)C1=O [DP0023, H-Dmt-D-Arg-1AnaGly-Bpa-Trp-NH2] |  | 61 |  |  | significant | non-detectable | 9.1 | 
8 | Cc1cc(O)cc(C)c1C[C@H](N)C(=O)N[C@H](CCCNC(=N)N)C(=O)N[C@@H](Cc1ccccc1)C(=O)N(C)CC(=O)N[C@@H](CCCN1CCC(Cc2ccccc2)CC1)C(=O)N[C@@H](Cc1ccccc1)C(N)=O [DP0024, H-Dmt-D-Arg-Phe-N(Me)Gly-Bpa-Phe-NH2] (HELM PEPTIDE1{[Cc1cc(O)cc(C)c1C[C@H](N)C(=O)[*:2]].[dR].F.[Sar].[O=C([C@H](CCCN1CCC(Cc2ccccc2)CC1)N[*:1])[*:2]].F.[am]}$$$$V2.0) | 9.9 | 97 | ~50 | ~95 |  |  |  | 
9 | Cc1cc(O)cc(C)c1C[C@H](N)C(=O)N[C@H](CCCNC(=N)N)C(=O)N[C@@H](Cc1ccccc1)C(=O)N(C)CC(=O)N[C@@H](CCCN1CCC(Cc2ccccc2)CC1)C(=O)N[C@H](C(N)=O)C(C)C [DP0025, H-Dmt-D-Arg-Phe-N(Me)Gly-Bpa-Val-NH2] (HELM PEPTIDE1{[Cc1cc(O)cc(C)c1C[C@H](N)C(=O)[*:2]].[dR].F.[Sar].[O=C([C@H](CCCN1CCC(Cc2ccccc2)CC1)N[*:1])[*:2]].V.[am]}$$$$V2.0) | 7.1 | 110 | ~50 | ~114 |  |  |  | 
10 | Cc1cc(O)cc(C)c1C[C@H](N)C(=O)N[C@H](CCCNC(=N)N)C(=O)N[C@H]1Cc2ccccc2CN(CCC(=O)N[C@@H](CCCN2CCc3ccccc3C2)C(=O)N[C@@H](Cc2ccccc2)C(N)=O)C1=O [DP0026, H-Dmt-D-Arg-Aba-β-Ala-THIQ-Phe-NH2] | 2.4 | 98 |  | ~50 |  |  |  | 
11 | Cc1cc(O)cc(C)c1C[C@H](N)C(=O)N[C@H](CCCNC(=N)N)C(=O)N[C@H]1Cc2ccccc2CN(CCC(=O)N[C@H](CCCN2CCC(Cc3ccccc3)CC2)C(=O)N[C@@H](Cc2ccccc2)C(N)=O)C1=O [DP0027, H-Dmt-D-Arg-Aba-β-Ala-D-Bpa-Phe-NH2] | 13.6 | 95 | ~180 | ~68 |  |  |  | 
12 | Cc1cc(O)cc(C)c1C[C@H](N)C(=O)N[C@H](CCCN)C(=O)N[C@H]1Cc2ccccc2CN(CCC(=O)N[C@@H](CCCN2CCC(Cc3ccccc3)CC2)C(=O)N[C@@H](Cc2ccccc2)C(N)=O)C1=O [DP0028, H-Dmt-D-Orn-Aba-β-Ala-Bpa-Phe-NH2] (H-[Dmt][dOrn][X1][Nva(5-(4-Bn-piperidin-1-yl))]F-NH2) | 40.4 | 75 |  |  | significant | non-detectable |  | 
13 | Cc1cc(O)cc(C)c1C[C@H](N)C(=O)N[C@H](CCCCN)C(=O)N[C@H]1Cc2ccccc2CN(CCC(=O)N[C@@H](CCCN2CCC(Cc3ccccc3)CC2)C(=O)N[C@@H](Cc2ccccc2)C(N)=O)C1=O [DP0029, H-Dmt-D-Lys-Aba-β-Ala-Bpa-Phe-NH2] (H-[Dmt][dK][X1][Nva(5-(4-Bn-piperidin-1-yl))]F-NH2) | 25.7 | 72 |  |  | significant | non-detectable |  | 
14 | Cc1cc(O)cc(C)c1C[C@H](N)C(=O)N[C@H](CCCNC(=N)N)C(=O)N[C@@H](Cc1ccccc1)C(=O)N(C)[C@H](C)C(=O)N[C@@H](CCCN1CCC(Cc2ccccc2)CC1)C(=O)N[C@@H](Cc1ccccc1)C(N)=O [DP0030, H-Dmt-D-Arg-Phe-N(Me)-D-Ala-Bpa-Phe-NH2] (H-[Dmt][dR]F[dNMeA][Nva(5-(4-Bn-piperidin-1-yl))]F-NH2) | 27.7 | 111 | ~150 | ~85 |  |  |  | 
15 | N=C(N)NCCC[C@@H](NC(=O)[C@@H]1Cc2ccc(O)cc2CN1)C(=O)N[C@H]1Cc2ccccc2CN(CCC(=O)N[C@@H](CCCN2CCC(Cc3ccccc3)CC2)C(=O)N[C@@H](Cc2ccccc2)C(N)=O)C1=O [DP0031, 7-OH-Tic-D-Arg-Aba-β-Ala-Bpa-Phe-NH2] (H-[Tic(7-OH)][dR][X1][Nva(5-(4-Bn-piperidin-1-yl))]F-NH2; N-terminus assumed) | 3600 | 46 |  | ~40 |  |  |  | > 500
16 | Cc1cc(O)cc(C)c1C[C@H](NC(=N)N)C(=O)N[C@H](CCCNC(=N)N)C(=O)N[C@H]1Cc2ccccc2CN(CCC(=O)N[C@@H](CCCN2CCC(Cc3ccccc3)CC2)C(=O)N[C@@H](Cc2ccccc2)C(N)=O)C1=O [DP0032, Guanidyl-Dmt-D-Arg-Aba-β-Ala-Bpa-Phe-NH2] |  | 63 |  |  | significant | non-detectable | 12.6 | 
17 | Cc1cc(O)cc(C)c1C[C@H](N)C(=O)N(CCCCN)CC(=O)N[C@H]1Cc2ccccc2CN(CCC(=O)N[C@@H](CCCN2CCC(Cc3ccccc3)CC2)C(=O)N[C@@H](Cc2ccccc2)C(N)=O)C1=O [DP0035, H-Dmt-Nlys-Aba-β-Ala-Bpa-Phe-NH2] (H-[Dmt][Nlys][X1][Nva(5-(4-Bn-piperidin-1-yl))]F-NH2) | 48.4 | 15 |  |  |  |  |  | 
